No end group written: not given here.

We go through six molecules from patent US12077607B2, “Functional and therapeutic effects of PAR4 cleavage by cathepsin G” (UNIVERSITY OF UTAH RESEARCH FOUNDATION, priority 2021, dated 2024).

One series addresses T1, PAR-1 (Homo sapiens, UniProt P25116).
T1 construct: endogenous in cells; host or cells: human washed platelets
T1 sequence (P25116 22-425): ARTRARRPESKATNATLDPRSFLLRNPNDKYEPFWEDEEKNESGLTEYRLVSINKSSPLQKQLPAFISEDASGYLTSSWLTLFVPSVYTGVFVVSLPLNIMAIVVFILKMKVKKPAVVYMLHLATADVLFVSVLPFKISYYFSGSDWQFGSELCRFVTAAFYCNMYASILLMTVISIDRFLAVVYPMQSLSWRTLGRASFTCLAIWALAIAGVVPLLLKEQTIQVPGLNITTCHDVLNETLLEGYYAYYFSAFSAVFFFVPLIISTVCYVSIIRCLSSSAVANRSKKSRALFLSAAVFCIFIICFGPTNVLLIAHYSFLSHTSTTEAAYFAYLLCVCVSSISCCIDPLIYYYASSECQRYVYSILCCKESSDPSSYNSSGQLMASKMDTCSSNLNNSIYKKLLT
Description: Antagonist study: PAR-1 inhibitor in platelet aggregation. The series is classed as cell-based. The note with it: 100 nM VPX.

Series [1] relates to washed platelets. Briefly: Platelet aggregation of human washed platelets. The series is classed as cell-based. To be noted: for platelet aggregation induced by peptide / peptide concentration producing maximal platelet aggregation: washed platelets; for platelet aggregation induced by peptide: 1 mM peptide (RA-6mer 1 mM or 10 mM; AL-10mer independent of concentration). As for the experimental part: (§1) Platelet isolation, aggregation, and activation. Human washed platelets were prepared and resuspended in Tyrode's Buffer at 2×10^8/mL as described (Edelstein et al., Nat Med. 2013; 19(12):1609-1616). For human and dog platelet comparisons, platelets were prepared using a modified human platelet protocol with final concentrations of […] (Cayman Chemical, Ann Arbor, MI, USA) used during centrifugation steps. Centrifugations after Tyrode's washes was decreased to 1,250×g as described in Cremer et al., PLOS One. 2019; 14(11): e0224891. Platelet aggregation was measured under stirring conditions at 37° C. using a PAP-8E aggregometer after treatment with the following agonists: arachidonic acid (Bio/Data Corporation, Horsham, PA, USA), cathepsin G, elastase, proteinase 3 (Athens Research Group), α-thrombin (Sigma, St. Louis, MO, USA), PAR-1 peptide (SFLLRN) (GL Biochem, China). P-selectin and PAC-1 were measured as previously described (Yee et al., J Thromb Haemost. 2006; 4(9):2043-2050; Tourdot et al., Arterioscler Thromb Vasc Biol. 2014; 34(12):2644-2650).
(§2) GYPGQV-NH2 (SEQ ID NO: 5), RALLLGWVPTR-NH2 (SEQ ID NO: 1), ALLLGWVPTR-NH2 (SEQ ID NO: 2), RALLLG-NH2 (SEQ ID NO: 4). Peptides were synthesized by BIOMATIK (Wilmington, DE, USA) at similar purities. All peptides were suspended in 50% DMSO and 50% ethanol. To measure platelet activation, washed platelets were stimulated with various concentrations of the peptide in the presence of CD41-APC, P-selectin (PE) and PAC-1 (FITC) for 15 minutes at 37° C. and then fixed with FACS Lysis Buffer. Samples were immediately run on a Cytoflex flow cytometer. In some experiments, platelets were stimulated with peptides and platelet aggregation performed as described above. Platelet calcium flux was induced by RALLLGWVPTR (2 mM; SEQ ID NO: 1), CatG (500 nM), ALLLGWVPTR (2 mM; SEQ ID NO: 2) or tyrodes buffer and monitored as described above.

The subject of series [2] is washed platelets. Briefly: Platelet calcium flux assay. The series is classed as cell-based, human. The note with it: CatG 500 nM; for platelet calcium flux: peptides 2 mM, FURA2-AM loaded washed platelets. As to the method: Platelet calcium flux assay. Washed platelets were incubated at 37° C. for 1 hour in Tyrode's buffer (supplemented with pgel and heparin) with Fura-2AM (final concentration 2 μM). Platelets were washed and resuspended to a final concentration of 4×10^8/mL. Platelets were dispensed into a Costar 96-well half area clear bottom plate and placed in the Flexstation 3 (Molecular Devices) where cathepsin G (500 nM), buffer, or peptides (2 mM) were injected onto cells and calcium flux monitored.
as §2
On the technique in general: Calcium assays in cells follow changes in intracellular calcium, usually with a dye or a luminescent sensor.

Series [3] can be described thus: Ability of peptide to go into solution. It counts as physicochemical. The note with it: numerous attempts with different solvents. From the text: Having said that, perhaps the hydrophobic portion of the C-terminus of RALLLGWVPTR (SEQ ID NO: 1) stabilizes the tethered ligand on the platelet plasma membrane.
The test system of a further series is mouse washed platelets. Briefly: Platelet aggregation of mouse washed platelets. It counts as cell-based. The note with it: 1 U/mL human thrombin, 1 μM human CatG or 1 mM RA-11mer.
Excerpt: (§3) Animal studies. Mouse platelets were isolated as previously described from C57BL/6 mice (Denorme et al., Blood. 2020; 135(6):429-440). Dog platelets were isolated from whole blood drawn into ACD using a similar isolation procedure as for human platelets. All animal studies were approved by the University of Utah Institutional Animal Care and Use Committee (18-10012).
(§4) Platelet and neutrophil isolation. Platelets and neutrophils were isolated as previously described (Yost et al., J Clin Invest. 2016; 126(10):3783-3798). Platelet isolation from dogs, rats and mice was approved by the IACUC. Platelet activation and aggregation were performed as previously described (Manne et al., Blood. 2020; 136(11): 1317-1329).
as §1

Series [4] deals with washed platelets. Description: Platelet activation by flow cytometry (PAC-1 binding, P-selectin). It counts as cell-based, human. To be noted: 1 mM peptide vs buffer; washed platelets. As for the experimental part:
as §1, §2
Background: Flow cytometry measures light scatter and fluorescence of single cells or particles in a stream.

The subject of the next series is dog washed platelets. Briefly: Platelet aggregation of dog washed platelets. The note with it: 1 U/mL human thrombin, 1 μM human CatG or 1 mM RA-11mer. It counts as cell-based.
Excerpt: as §3, §4, §1

Another series deals with T2, WT human PAR4 (hPAR4) (Homo sapiens, UniProt Q96RI0).
T2 construct: Flag; expressed in transfected cells; host or cells: HEK293T/17 (ATCC CRL-11268)
T2 sequence (Q96RI0 18-385): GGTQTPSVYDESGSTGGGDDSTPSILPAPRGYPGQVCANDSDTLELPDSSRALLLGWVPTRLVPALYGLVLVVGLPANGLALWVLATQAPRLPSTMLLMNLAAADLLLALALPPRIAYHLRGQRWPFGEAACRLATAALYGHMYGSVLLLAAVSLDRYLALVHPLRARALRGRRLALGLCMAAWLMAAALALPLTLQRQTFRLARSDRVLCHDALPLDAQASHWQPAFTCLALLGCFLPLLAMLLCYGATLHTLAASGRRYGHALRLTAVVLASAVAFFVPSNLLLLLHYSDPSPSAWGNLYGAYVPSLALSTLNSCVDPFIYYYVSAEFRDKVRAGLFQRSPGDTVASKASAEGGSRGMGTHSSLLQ
Description: PAR4 calcium flux assay in HEK293T/17 cells expressing WT PAR4. It counts as cell-based. The note with it: 1.5 mM peptide; HEK293T/17 cells. As for the experimental part:
PAR4 calcium flux assays. PAR4-dependent calcium flux was measured using Fura2-QBT in platelets and HEK293T/17 cells with wild-type (WT) and mutant PAR4 (Tourdot et al., Arterioscler Thromb Vasc Biol. 2014; 34(12):2644-2650).
PAR4 mutant calcium flux assays. Using Quikchange Lightning Site-Directed mutagenesis (Agilent) per manufacturing instructions, pCMV-Flag-PAR4-S66E, pCMV-Flag-PAR4-S67E, and pCMV-Flag-PAR4-R68E were generated from mutation of pCMV-Flag-PAR4 and confirmed by sequencing (University of Utah DNA Sequencing Core). Prior to transfection, HEK293T/17 cells (ATCC CRL-11268) were seeded at 4.5×10^4/mL. The following day, cells were transfected with the plasmid of interest using Lipofectamine 2000 (Invitrogen, Carlsbad, CA, USA). Twenty-four hours after transfection, media was removed and replaced with Optimem w/Glutamax (Gibco, Carlsbad, CA, USA) containing vorapaxar (100 nM) (Cayman Chemical, Ann Arbor, MI, USA) and Fura2-QBT (Molecular Devices). Following incubation for 1 hour at 37° C., plate was placed in the Flexstation 3 (Molecular Devices) where agonists, Tyrode's Buffer, cathepsin G (2.5 μM), or α-thrombin (1.5 U/mL), were injected onto cells and calcium mobilization was monitored and recorded.

A further series concerns rat washed platelets. Description: Platelet aggregation of rat washed platelets. It counts as cell-based. To be noted: 1 U/mL human thrombin, 1 μM human CatG or 1 mM RA-11mer. As for the experimental part: as §4, §1

Description for PAR-1: Human washed platelets were prepared and resuspended in Tyrode's Buffer at 2×10^8/mL as described (Edelstein et al., Nat Med. 2013; 19(12):1609-1616). […] Platelet aggregation was measured under stirring conditions at 37° C. using a PAP-8E aggregometer after treatment with the following agonists: arachidonic acid (Bio/Data Corporation, Horsham, PA, USA), cathepsin G, elastase, proteinase 3 (Athens Research Group), α-thrombin (Sigma, St. Louis, MO, USA), PAR-1 peptide (SFLLRN) (GL Biochem, China).
Antagonist Studies. Washed platelets were incubated for 15 minutes at 37° C. with PAR-4 blocking antibody RC3 (100 μg/mL) (generous gift from Regeneron Pharmaceuticals; French et al., Blood Adv. 2018; 2(11): 1283-1293), PAR-1 inhibitor vorapaxar (100 nM), and/or PAR-4 inhibitor BMS-986120 (400 nM) (Cayman Chemical, Ann Arbor, MI, USA).

In the case of `CCOC(=O)N[C@@H]1CC[C@@H]2[C@@H](C1)C[C@H]1C(=O)O[C@H](C)[C@H]1[C@H]2/C=C/c1ccc(-c2cccc(F)c2)cn1` [VPX, vorapaxar], the “effect on thrombin-induced platelet aggregation” value at PAR-1 (0.1 U/mL thrombin) is reported as “abolished”. Moreover, the “effect on PAR1 activation by PAR1 activation peptide” value at PAR-1 (SFLLRN 10 μM) is listed as “efficiently ablated PAR1 activation”.
For the molecule “ALLLGWVPTR (ALLLGWVPTR-NH2) [10-mer PAR4 Tethered Ligand Fragment]”, the “platelet aggregation induced by peptide” value in the series with washed platelets [1] is given as “no discernable platelet aggregation”. Also, in the series with washed platelets [2], the platelet calcium flux result is “no discernable”.
Regarding “GYPGQV-NH2 [the thrombin-generated PAR4 tethered ligand, reference compound]”, in the series on washed platelets [1], the “peptide concentration producing maximal platelet aggregation” value is 6 mM.
For “RALLLG-NH2 [6mer from the CatG tethered ligand]”, the “platelet aggregation induced by peptide” value in the series on washed platelets [1] is “not able to induce platelet aggregation”.
With “RALLLGWV [RALLLGWV 8mer, 8-mer PAR4 Tethered Ligand Fragment, intermediate length peptide]”, in series [3], the “ability to go into solution” value is “inability to go into solution”.
In the case of “RALLLGWVPTR (RALLLGWVPTR-NH2) [synthetic peptide representing the CatG-generated PAR4 tethered ligand]”, the “platelet aggregation, species comparison: mice” value in the series on mouse washed platelets is “induced aggregation only in humans and dogs”. In addition, in the series with washed platelets [4], the “granule release (P-selectin expression)” value is given as “increased” and the “integrin activation (PAC-1 binding)” value is “increased”. Also, the “platelet aggregation, species comparison: humans” value in the series on washed platelets [1] (1 U/mL human thrombin, 1 μM human CatG or 1 mM RA-11mer) was “induced aggregation”. Also, the “potency as activator of PAR4, comparison” value in the series on washed platelets [1] (from platelet aggregation data) is reported as “more potent activator of PAR4 than the thrombin-generated tethered ligand”. Further, in the series on washed platelets [1], the “peptide concentration producing maximal platelet aggregation” value was 1 mM and the “platelet aggregation induced by peptide” value is given as “increased”. In addition, the “platelet aggregation, species comparison: dogs” value in the series with dog washed platelets was “induced aggregation”. The “calcium flux in HEK cells transfected with WT PAR4 compared with mock” value with WT human PAR4 (hPAR4) is “induced calcium flux”. The “peak platelet calcium flux, CatG compared with RALLLGWVPTR” value in the series on washed platelets [2] (RA-11mer 2 mM) was “similar”. Moreover, the platelet calcium flux entry with washed platelets [2] was “significant and sustained calcium flux”. The “platelet aggregation, species comparison: rats” value in the series on rat washed platelets was “induced aggregation only in humans and dogs”.
